Source: US5109025A, “Therapeutic agent for penal disorders” (Dainippon Ink and Chemicals, Inc., priority 1988, dated 1992)
Counter-ions that a name gives are not always drawn.

Tests used:
[1] = system: kidney injury induced by cis-platinum; assay: Cis-platinum-induced kidney injury model test; format: in vivo, ddy male mice; settings: for Blood Urea Nitrogen: 100 mg/kg/day oral, 5 days before and 5 days after 17 mg/kg s.c. cis-platinum, serum, mice, **: P < 0.01, *: P < 0.05 vs cis-platinum group (114.7 ± 18.4)
Procedure: In this example, tests were conducted to examine the therapeutical activity of THC against kidney injury induced by cis-platinum (cis-DDP) which is an anti-cancer drug and is known to have a very strong effect of inducing functional disorders of the kidney.
A group of ten ddy male mice each weighing from 20 to 25 g were orally administered with 100 mg/kg/day of THC or isoliquiritigenin (positive comparative compound) for 5 continuous days, subcutaneously injected with 17 mg/kg of cis-platinum once on the fifth day, and were treated moreover for 5 continuous days orally administered with THC or isoliquiritigenin in the same manner as above. Thereafter, blood samples were collected, and blood urea nitrogen (BUN) in the serum was measured.
In the test, a group of ten non-treated ddy male mice each weighing from 20 to 25 g were subcutaneously administered once with 17 mg/kg of cis-platinum only. This group was used as control.
For the measurement of blood urea nitrogen, there was used Urea NB-Test Wako (produced by Wako Pure Chemical Industry Co., Ltd.).

mast cells = assay: Antiallergic activity: inhibition of histamine liberation from mast cells by Compound 48/80; format: cell-based, rat; settings: for Liberation Ratio of Histamine / inhibition at 30 µM: 0.03 mM, Compound 48/80-induced; for Liberation Ratio of Histamine: control 82.4, blank 3.4; for inhibition at 30 µM: Rattus norvegicus, Mast cell, read-out: Inhibition Ratio (histamine liberation)
Procedure: Locke's solution (10 ml) containing 0.1% by weight of bovine serum albumin was injected into the abdominal cavity of a rat which had been sacrificed by exsanguination. The rat was lightly massaged, then subjected to an abdominal section so that an abdominal solution was collected. The abdominal cavity was also washed with 5 ml of the same solution and the washing solution was collected and mixed with the above abdominal solution. The abdominal solution was centrifuged at 500 rpm for 5 minutes, then 5 ml of cool Locke's solution was added to the sediment. After the sediment had been washed, 3 ml of cool Locke's solution was again added thereto to form a solution of rat peritoneal exudation cells.
Locke's solution (0.5 ml) and 1.0 ml of THC or isoliquiritigenin solution prepared in a concentration of 0.03 mM (THC or isoliquiritigenin was dissolved in a physiological saline solution containing 1% sodium bicarbonate, the resultant solution being diluted with Locke's solution) was added to 0.3 ml of the solution of rat peritoneal exudation cells obtained in (1) above and were incubated at 37° C. for 5 minutes. Then, 0.2 ml each of a Lock's solution of Compound 48/80 (1 mg/100 ml) was added to the solution and the mixture was incubated at 37° C. for 10 minutes. After the reaction was stopped by cooling, the obtained solution was centrifuged at 2,500 rpm for 10 minutes to separate into 1.7 ml of supernatant and 0.3 ml of sediment. Water (0.1 ml) and 0.2 ml of 100% trichloroacetic acid were added to the supernatant, and 1.5 ml of Locke's solution and the 100% trichloroacetic acid were added to the sediment which was then allowed to stand for 30 minutes at room temperature and was centrifuged at 3000 rpm for 15 minutes. A portion (0.35 ml) of each of the supernatant and the supernatant of the sediment was taken and 1.65 ml of water and 0.4 ml of 1N sodium hydroxide were added in turn to each of the supernatants. 0.5% OPT (orthophthalaldehyde) methanol solution (0.1 ml) was added to each of the resultant solutions which were then allowed to react at room temperature for 4 minutes. After the reaction was stopped by the addition of 0.2 ml of 2M citric acid, the fluorescence of each of the reaction solutions was measured by a fluorophotometer.
As a control, Locke's solution was added instead of the solution of THC and, as a blank, the Locke's solution was added instead of THC and Compound 48/80, the other operations being the same as those described above.
The inhibition ratio of THC or isoliquiritigenin for the liberation of histamine by Compound 48/80 is calculated from the following equations: [formula] Ps: Amount of free histamines (in the supernatant) Pr: Amount of remaining histamines (in the sediment) [formula] I: Value of A of THC or isoliquiritigenin C: Value of A of the control
B: Value of A of the blank

[2] = system: hydrochloric acid-ethanol-induced ulcer; assay: Antiulcer activity: HCl-ethanol ulcer model test; format: in vivo, SD male rats; settings: for Inhibition Ratio (ulcer) / Ulcer Index: Dose 100 (unit not given), oral, n = 5 rats; for Ulcer Index: **: P < 0.01 vs control group (46.7 ± 34.6)
Procedure: Antiulcer activity was tested using hydrochloric acid-ethanol-induced ulcer model test which is widely used for evaluating the effectiveness of antiulcer drugs.
A group of five SD male rats each weighing from 200 to 250 g were starved for 24 hours, and then administered orally with 1.0 ml/200 g of 150 mM hydrochloric acid-60% ethanol. After 1 hour, the animals were sacrificed with ether, and the stomach was taken out from each animal. After pouring 10 ml of physiological saline in each of them the stomachs were dipped in 1% formalin solution for 10 minutes to fix them. Each of the stomachs was incised along the greater curvature (curvatura ventriculi major) and the lengths of mucosal ulcers which appeared in the gastric gland portion were measured under microscope (×10). The sum of the lengths per animal was calculated and defined as ulcer index. Test drugs were administered orally in a dose of 1,0 ml/200 g after 10 minutes from the induction of stress. Cetraxate hydrochloride known as antiulcer drug was used as positive comparative compound.

ddy mice = assay: Toxicity test: minimum lethal dose; format: in vivo; settings: 5-week old male ddy mice
Procedure: In this example, tests were conducted to confirm the safety of THC, which is the active ingredient of the drug of the present invention.
THC was administered by oral administration or intraperitoneal injection to five 5-week old male ddy mice.

[3] = system: carragheenin-induced paw edema; assay: Antiinflammatory activity: carragheenin-induced paw edema; format: in vivo, SD male rat; settings: 300 mg/kg, oral, 60 minutes before carragheenin; rat
Procedure: The antiinflammatory activity of THC was tested by using carragheenin-induced paw edema method widely used for the evaluation of the effectiveness of general antiinflammatory drugs (NSAID).
A 1%-λ-carragheenin physiological saline solution (0.1 ml) was subcutaneously injected to the right paw of an SD male rat weighing from 200 to 250 g, and the volume of paw was measured after 30, 60, 90, 120, 180 and 300 minutes, respectively. The test drug (THC) had been administered orally in a dosage of 1.0 ml/200 g 60 minutes before the administration of carragheenin. The control group was administered orally with the solvent only in the same dosage. Edema ratio was calculated according to the following equation.
Edema Ratio=[(Ps-P0)/P0 ]×100
where Ps stands for value measured at a point in time after elapse of a predetermined time, and P0 value indicates a value measured at 0 minute after the administration.

[4] = compared with isoliquiritigenin

O=C(/C=C/c1ccc(O)cc1)c1ccc(O)cc1O [isoliquiritigenin, reference compound]
Blood Urea Nitrogen [1]: 70.6 ± 14.0 | Liberation Ratio of Histamine (mast cells): 71.2% | inhibition at 30 µM (mast cells): 14.2%

NC[C@H]1CC[C@H](C(=O)Oc2ccc(CCC(=O)O)cc2)CC1 [Cetraxate hydrochloride, reference compound]
Inhibition Ratio (ulcer) [2]: 75.7 | Ulcer Index [2]: 11.2 ± 20.0

O=C(/C=C/c1ccc(O)c(O)c1)c1ccc(O)cc1O [THC, 2',3,4,4'-tetrahydroxychalcone]
minimum lethal dose (ddy mice; intraperitoneal injection): not less than 1,000 mg/kg | minimum lethal dose (ddy mice; oral administration): not less than 3,000 mg/kg | inhibitory effect against carragheenin-induced edema [3]: marked inhibitory effect | Blood Urea Nitrogen [1]: 47.1 ± 12.6 | suppression of the increase in blood urea nitrogen due to kidney injury induced by cis-platinum (in words) [1, 4]: more potently than isoliquiritigenin | Inhibition Ratio (ulcer) [2]: 97.3 | Ulcer Index [2]: 1.2 ± 2.5 | inhibitory activity against hydrochloric acid-ethanol-induced ulcer (in words) ([2]; rat): remarkable inhibitory activity | Liberation Ratio of Histamine (mast cells): 10.4% | inhibition at 30 µM (mast cells): 91.1% | inhibition effect on histamine liberation from rat mast cells caused by Compound 48/80 (in words) (mast cells; [4]): more potent than isoliquiritigenin
